“And” between values parts separate entries of the source, which are not always exact repeats. Equal values may be shown once.
B1: PK1: Recombinant human prokineticin-1 expressed in HEK 293 cells, FLAG cleaved; mixture of full-length ligand and four C-terminal residue truncated product (protein, UniProt P58294 20-105, looked up)
Prokineticin-1: AVITGACERDVQCGAGTCCAISLWLRGLRMCTPLGREGEECHPGSHKVPFFRKRKHHTCPCLPNLLCSRFPDGRYRCSMDLKNINF
modifications: mixture with C-terminal 4-residue truncated form
notes: Recombinant human prokineticin-1 expressed in HEK 293 cells, FLAG cleaved; mixture of full-length ligand and four C-terminal residue truncated product

Columns and labels:
[1] = target: PK1 receptor (Rattus norvegicus, UniProt Q8R416); assay: Inhibition of PK1-evoked increase in Isc by PK1 receptor antagonists in Ussing-type ion flux chambers; conditions: test compound 1 μM, 15 min incubation, PK1 10 and 100 nM cumulative
Sequence of PK1 receptor (Q8R416 whole entry): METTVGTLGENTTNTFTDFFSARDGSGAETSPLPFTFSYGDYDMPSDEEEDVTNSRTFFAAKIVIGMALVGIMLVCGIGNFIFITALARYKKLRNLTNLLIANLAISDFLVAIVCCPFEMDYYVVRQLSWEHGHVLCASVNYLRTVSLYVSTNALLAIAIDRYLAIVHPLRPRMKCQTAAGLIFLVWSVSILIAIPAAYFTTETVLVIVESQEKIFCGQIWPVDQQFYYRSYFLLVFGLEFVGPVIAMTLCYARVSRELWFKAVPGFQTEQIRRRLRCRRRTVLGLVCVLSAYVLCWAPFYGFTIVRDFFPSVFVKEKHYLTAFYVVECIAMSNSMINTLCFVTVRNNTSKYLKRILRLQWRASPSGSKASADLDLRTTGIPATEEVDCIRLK
Excerpt: Methodology. The basic methodology for Ussing-type ion flux chambers used in these studies was the same as that described in detail above with the following modifications to the experimental protocol.

[2] = target: T1, HEK 293 GPR73 (prokineticin 1 receptor) expressing cells (Homo sapiens, UniProt Q8TCW9); assay: PK1 functional assay: screening for PK1 antagonists on the FLIPR (calcium mobilization); format: cell-based; conditions: HEK 293 GPR73 cells; for inhibition at 10 µM: HEK293, 10 μM compound, read-out: Ca^2+ Mobilization % Inh @10 μM; for IC50: PK1 ligand at EC50, read-out: Ca^2+ Mobilization IC50; for Ca^2+ Mobilization % Inh @10 μM: 10 μM compound
T1 construct: expressed in transfected cells; host or cells: HEK 293
T1 sequence (Q8TCW9 whole entry): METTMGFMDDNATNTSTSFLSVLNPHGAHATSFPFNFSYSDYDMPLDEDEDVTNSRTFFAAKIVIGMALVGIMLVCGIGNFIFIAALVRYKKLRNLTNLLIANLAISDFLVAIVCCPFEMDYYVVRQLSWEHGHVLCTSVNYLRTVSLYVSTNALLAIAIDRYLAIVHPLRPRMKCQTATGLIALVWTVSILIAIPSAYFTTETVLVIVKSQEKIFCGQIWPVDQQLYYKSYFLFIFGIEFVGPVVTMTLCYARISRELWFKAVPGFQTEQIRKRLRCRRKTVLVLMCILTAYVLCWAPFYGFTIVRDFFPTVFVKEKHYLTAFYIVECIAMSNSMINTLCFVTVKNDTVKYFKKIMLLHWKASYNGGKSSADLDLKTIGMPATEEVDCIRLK
Protocol: Screening Procedure for PK1 Antagonists on the Fluorometric Imaging Plate Reader (FLIPR)
At a time of 24 h prior to running the assay, in cell culture media (DMEM containing high Glucose and L-glutamine, 10% FBS, 1% Pen/Streptomycin, 1% Sodium Pyruvate, 20 mM HEPES, Zeocin 200 mg/L), 100 μL of 1.3*10^6/ml HEK 293 GPR73 (prokineticin 1 receptor) expressing cells were plated in a 96 well poly-d-lysine coated plate (Costar), and incubated at 37 C and 5% CO2. On the day in which the assay was run, the media was removed and 200 μL of 5× Calcium Plus Dye (Molecular Devices) which was previously resuspended with 200 mL of assay buffer [HBSS w/Ca^2+ and Mg^2+ w/o phenol red, 20 mM HEPES, 0.1% BSA, 10 mL probenecid (710 mg probenecid in 5 mL of 1N NaOH, to which was then added 5 mL HBSS containing 20 mM HEPES)] was added to each well of the 96-well plate. The plate was incubated at 37 C and 5% CO2 for 30 min in dark. The plate was removed and allowed to reach RT for 15 min in the dark. The assay was then run on the FLIPR. […] Baseline is described as the amount of relative fluorescence read when buffer alone is added to cells. Baseline was subtracted from all wells. Percent of control was calculated as follows: (Baseline subtracted well value is divided by baseline subtracted max value)*100. Percent inhibition is 100 minus the percent of control value.
IC50 values were calculated using GraphPad Prism.

[3] = tested on: ileum mucosal tissues from PK1 receptor knock-out mice; assay: PK1-evoked Isc in ileum mucosal tissues from PK1 receptor knock-out mice; conditions: exogenous PK1 peptide, PK1 receptor knock-out mice ileum mucosa
[4] = tested on: rat ileal tissues; assay: Effect of PK1 on secretion and gut mucosal ion transport (short-circuit current, Ussing-type flux chamber)

Molecule | inhibition at 10 µM [2] [%] | IC50 [2] | Ca^2+ Mobilization % Inh @10 μM [2] | other results
COc1ccc(Cn2c(NCCNC(=N)N)nc(=O)n(Cc3ccccc3)c2=O)cc1 [Cpd 2] |  |  |  | inhibition of the PK1 evoked increase in Isc [1]: successfully achieved
N=C(N)NCCNc1nc(=O)n(Cc2ccccc2)c(=O)n1Cc1ccc([N+](=O)[O-])cc1 [Cpd 9] | 35 | > 10000 nM |  | 
COc1ccc(Cn2c(NCCONC(=N)N)nc(=O)n(Cc3ccccc3)c2=O)cc1 [Cpd 10] |  |  | 33% | 
COc1ccc(Cn2c(NCCNC(=N)N)nc(=O)n(Cc3ccc(F)cc3)c2=O)cc1 [Cpd 17, N-{2-[5-(4-Fluoro-benzyl)-1-(4-methoxy-benzyl)-4,6-dioxo-1,4,5,6-tetrahydro-[1,3,5]triazin-2-ylamino]-ethyl}-guanidine] |  |  |  | inhibition of the PK1 evoked increase in Isc [1]: successfully achieved
COc1ccc(Cn2c(N[C@@H]3CCCC[C@H]3NC(=N)N)nc(=O)n(Cc3ccc(Cl)c(Cl)c3)c2=O)cc1 [Cpd 47] | 101 | 57 nM |  | 
COc1ccc(Cn2c(NCCNC(=N)NC(C)C)nc(=O)n(Cc3ccc(Cl)c(Cl)c3)c2=O)cc1 [Cpd 58, N-{2-[5-(3,4-Dichloro-benzyl)-1-(4-methoxy-benzyl)-4,6-dioxo-1,4,5,6-tetrahydro-[1,3,5]triazin-2-ylamino]-ethyl}-N′-isopropyl-guanidine] | 102 | 7 nM and 16 nM (2×) |  | Ca^2+ Mobilization % Inh @10 μM ([2]; 10 µM): 99% and 98%; inhibition of the PK1 evoked increase in Isc [1]: successfully achieved
COc1ccc(Cn2c(NCCNC(=N)NCCc3ccccc3)nc(=O)n(Cc3ccc(Cl)c(Cl)c3)c2=O)cc1 [Cpd 65] |  | 485 nM | 88% | 
COc1ccc(Cn2c(NCCNC(=N)Nc3ccc(C#N)cc3)nc(=O)n(Cc3ccc(F)cc3)c2=O)cc1 [Cpd 90, N-(4-Cyano-phenyl)-N′-{2-[5-(4-fluoro-benzyl)-1-(4-methoxy-benzyl)-4,6-dioxo-1,4,5,6-tetrahydro-[1,3,5]triazin-2-ylamino]-ethyl}-guanidine] | 100 | 31 nM and 43 nM (2×) |  | Ca^2+ Mobilization % Inh @10 μM ([2]; 10 µM): 100% and 101%
COc1ccc(Cn2c(NCCN(C(=N)N)c3ccccn3)nc(=O)n(Cc3ccc(F)cc3)c2=O)cc1 [Cpd 104, N-{2-[5-(4-Fluoro-benzyl)-1-(4-methoxy-benzyl)-4,6-dioxo-1,4,5,6-tetrahydro-[1,3,5]triazin-2-ylamino]-ethyl}-N-pyridin-2-yl-guanidine] |  | 11 nM |  | Ca^2+ Mobilization % Inh @10 μM ([2]; 10 µM): 99% and 102%
COc1ccc(Cn2c(NCCNC(=N)NCCc3ccccn3)nc(=O)n(Cc3ccc(F)cc3)c2=O)cc1 [Cpd 105] |  | 89 nM | 100% | 
[H]/N=C(\N)NCCNc1nc(=O)n(Cc2ccc(OC(C)(C)C)cc2)c(=O)n1Cc1ccc(OC)cc1 [Cpd 109] | 99 | 129 nM |  | 
COc1ccc(Cn2c(NCCNC(=N)Nc3ccccc3F)nc(=O)n(Cc3ccc(F)cc3)c2=O)cc1 [Cpd 118, N-{2-[5-(4-Fluoro-benzyl)-1-(4-methoxy-benzyl)-4,6-dioxo-1,4,5,6-tetrahydro-[1,3,5]triazin-2-ylamino]-ethyl}-N′-(2-fluoro-phenyl)-guanidine] | 98 | 6 nM |  | Ca^2+ Mobilization % Inh @10 μM ([2]; 10 µM): 102%
COc1ccc(Cn2c(NCCNC(=N)N)nc(=O)n(CC3CCCC3)c2=O)cc1 [Cpd 124] |  | 1560 nM | 74% | 
COc1ccc(Cn2c(NCCNC(=N)NC(=O)c3ccccc3)nc(=O)n(Cc3ccc(F)cc3)c2=O)cc1 [Cpd 134, N-Benzoyl-N′-{2-[5-(4-fluoro-benzyl)-1-(4-methoxy-benzyl)-4,6-dioxo-1,4,5,6-tetrahydro-[1,3,5]triazin-2-ylamino]-ethyl}-guanidine] | 97 | 19 nM and 28 nM | 97, 97% | 
N-{2-[5-Benzyl-1-(4-methoxy-benzyl)-4,6-dioxo-1,4,5,6-tetrahydro-[1,3,5]triazin-2-ylamino]-ethyl}-oxyguanidine [Cpd 27] |  | 1970 nM | 55% | 
B1 |  |  |  | change in Isc compared to wild-type littermates [3]: failed to elicit a significant change in Isc; increase in Isc from baseline ([4]; 10 nM PK1, […], n=33 tissues from 22 rats): 13.5±2. μA/cm^2; increase in Isc from baseline ([4]; 100 nM PK1, […], n=42 tissues from 29 rats): 28.7±2.9 μA/cm^2; concentration at which the maximal PK1-evoked response occurred ([4]; […]): 100 nM; effect on tissue conductance (G) ([4]; […]): no significant effect; time for Isc to decline back toward baseline ([4]; basolateral addition, […]): 10 to 15 min; time to peak Isc after single-dose addition ([4]; basolateral addition, […]): 2 to 4 min; pro-secretory effect in the presence of Atropine ([4]; blockade of muscarinic receptors): not blocked; pro-secretory effect in the presence of Tetrodotoxin (TTX) ([4]; nerve conduction toxin present): not blocked

Source: patent US7968710B2, “Prokineticin 1 receptor antagonists” (Janssen Pharmaceutica NV, priority 2005, dated 2011)
